The subject of experiment [1] is KRas-mediated phosphorylation of ERK in A549 cells. The experiment is described as follows: Inhibition of KRas-mediated phosphorylation of ERK (Cisbio HTRF pERK), A549 cells. To be noted: Homo sapiens, HTRF pERK. It is filed as cell-based. The method, boiled down:
(§1)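 A cell-based HTRF pERK assay: ten-point, threefold titrations beginning at 10 uM were applied for 3 hrs, with 0.2 uM Trametinib wells as the minimum control. Cells were lysed cold, and lysate was incubated with the antibody pair for 2 hrs before reading.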

Experiment [2] concerns KRas-mediated phosphorylation of ERK in MKN1 cells. Briefly: Inhibition of KRas-mediated phosphorylation of ERK (Cisbio HTRF pERK), MKN1 cells. Particulars: Homo sapiens, MKN-1. It is filed as cell-based. The method, boiled down:
(§2)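 Overnight culture at 37° C./5% CO2 in RPMI containing 10% FBS, seeded 6,000 cells per well, preceded the assay. A covered 4-hour incubation at room temperature followed, then HTRF signal for phosphorylated ERK was measured.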
A general note: TR-FRET usually uses a lanthanide donor and a delayed reading to cut background.

A further experiment deals with T1, KRas^G12D (Homo sapiens, UniProt P01116, G12D).
T1 construct: Biotinylated KRas (corresponding to amino acids 1-169, produced at Accelegan Inc.); biotin (biotinylated); purchased Accelegan Inc
The experiment is described as follows: KRas binding assay (TR-FRET tracer displacement), KRas G12D.

In experiment [3] the test system is KRas-mediated phosphorylation of ERK in AsPC-1 cells. The experiment is described as follows: Inhibition of KRas-mediated phosphorylation of ERK (Cisbio HTRF pERK), AsPC-1 cells. It counts as cell-based. Particulars: Homo sapiens, ASPC1, AsPC-1 cells; HTRF pERK. The method, boiled down:
(§3)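 Signal read by HTRF (d2/Cryptate antibody pair, 2 hr room-temperature incubation on lysate). Cells: 6,000 per well, 3 hr compound exposure. Titration: 10 uM highest, 3-fold, 10 points.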

The target in the next experiment is T2, KRas^G12V (Homo sapiens, UniProt P01116, G12V).
T2 construct: Biotinylated KRas (corresponding to amino acids 1-169, produced at Accelegan Inc.); biotin (biotinylated); purchased Accelegan Inc
Briefly: KRas binding assay (TR-FRET tracer displacement), KRas G12V.

For another experiment, the target named is T3, KRas^G12R (Homo sapiens, UniProt P01116, G12R).
T3 construct: Biotinylated KRas (corresponding to amino acids 1-169, produced at Accelegan Inc.); biotin (biotinylated); purchased Accelegan Inc
Briefly: KRas binding assay (TR-FRET tracer displacement), KRas G12R.

For experiment [4], the system named is KRas-mediated phosphorylation of ERK in H727 cells. The experiment is described as follows: Inhibition of KRas-mediated phosphorylation of ERK (Cisbio HTRF pERK), H727 cells. It is filed as cell-based. To be noted: Homo sapiens, NCI-H727, H727 cells; HTRF pERK. The method, boiled down: as §3
Experiment [5] has as its system KRas-mediated phosphorylation of ERK in H460 cells. The experiment is described as follows: Inhibition of KRas-mediated phosphorylation of ERK (Cisbio HTRF pERK), H460 cells. Particulars: Homo sapiens, NCI-H460, HTRF pERK. It is filed as cell-based. The method, boiled down:
as §3

For experiment [6], the system named is KRas-mediated phosphorylation of ERK in PSN1 cells. Briefly: Inhibition of KRas-mediated phosphorylation of ERK (Cisbio HTRF pERK), PSN1 cells. It is filed as cell-based. To be noted: Homo sapiens. The method, boiled down: as §2
Experiment [7] deals with KRas-mediated phosphorylation of ERK in H358 cells. Briefly: Inhibition of KRas-mediated phosphorylation of ERK (Cisbio HTRF pERK), H358 cells. It is filed as cell-based. To be noted: Homo sapiens, NCI-H358, HTRF pERK. The method, boiled down:
as §3

Experiment [8] relates to KRas-mediated phosphorylation of ERK in HCT116 cells. The experiment is described as follows: Inhibition of KRas-mediated phosphorylation of ERK (Cisbio HTRF pERK), HCT116 cells. It is filed as cell-based. Particulars: Homo sapiens, HCT-116, HTRF pERK. The method, boiled down: as §1

A value given as a limit tells only on which side of the number the result lay.

T2 sequence (P01116 1-169 isoform P01116-2 G12V): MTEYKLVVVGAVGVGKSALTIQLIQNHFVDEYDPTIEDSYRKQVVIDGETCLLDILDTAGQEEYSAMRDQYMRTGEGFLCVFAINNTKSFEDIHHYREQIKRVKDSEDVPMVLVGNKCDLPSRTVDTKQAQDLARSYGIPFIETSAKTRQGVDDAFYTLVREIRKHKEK
T3 sequence (P01116 1-169 isoform P01116-2 G12R): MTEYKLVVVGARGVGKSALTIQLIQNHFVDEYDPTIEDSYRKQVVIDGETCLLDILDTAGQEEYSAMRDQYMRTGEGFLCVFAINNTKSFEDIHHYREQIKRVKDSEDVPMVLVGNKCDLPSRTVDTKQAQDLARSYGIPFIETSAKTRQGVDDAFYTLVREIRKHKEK
T1 sequence (P01116 1-169 isoform P01116-2 G12D): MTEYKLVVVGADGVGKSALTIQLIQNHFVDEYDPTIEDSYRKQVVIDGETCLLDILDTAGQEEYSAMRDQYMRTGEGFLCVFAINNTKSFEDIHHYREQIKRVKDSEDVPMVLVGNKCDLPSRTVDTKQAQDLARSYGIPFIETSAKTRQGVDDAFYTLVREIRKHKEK

For `CCc1c(F)ccc2cc(O)cc(-c3ncc4c(N5CC6CCC(C5)C6CC(=O)N(C)C)nc(OC[C@@]56CCCN5C[C@H](F)C6)nc4c3F)c12` (stereo partly drawn) [Example 860, 2-((1R,5S,8S)-3-(7-(8-ethyl-7-fluoro-3-hydroxynaphthalen-1-yl)-8-fluoro-2-(((2R,7aS)-2-fluorotetrahydro-1H-pyrrolizin-7a(5H)-yl)methoxy)pyrido[4,3-d]pyrimidin-4-yl)-3-azabicyclo[3.2.1]octan-8-yl)-N,N-dimethylacetamide], the IC50 (in general, the point on the concentration scale where inhibition reaches its midpoint) worked out at 2760 nM in experiment [1]; 7 nM in [2]; 91 nM on KRas^G12D; 2600 nM in [3]; 13 nM at KRas^G12V; 68 nM at KRas^G12R. The IC50 in experiment [4] was 1120 nM; in experiment [5], 395 nM; in experiment [6], > 10000 nM; in experiment [7] it was 455 nM; in experiment [8] it was 600 nM.

With `CCc1c(F)ccc2cc(O)cc(-c3ncc4c(N5CC6CCC(C5)C6C(N)=O)nc(OC[C@@]56CCCN5C[C@H](F)C6)nc4c3F)c12` (stereo partly drawn) [Example 861, 3-(7-(8-ethyl-7-fluoro-3-hydroxynaphthalen-1-yl)-8-fluoro-2-(((2R,7aS)-2-fluorohexahydro-1H-pyrrolizin-7a-yl)methoxy)pyrido[4,3-d]pyrimidin-4-yl)-3-azabicyclo[3.2.1]octane-8-carboxamide], the IC50 in experiment [1] is 1340 nM; in [2] it was 1 nM; at KRas^G12D, 4 nM; in experiment [3], 1450 nM; at KRas^G12V, < 2 nM; at KRas^G12R it was < 2 nM. In addition, the IC50 was 592 nM in [4]; 173 nM in [5]; > 10000 nM in experiment [6]; 45 nM in experiment [7]; 254 nM in [8].

As for `CCc1c(F)ccc2cc(O)cc(-c3ncc4c(N5CC6CCC(C5)C6C)nc(OC[C@@]56CCCN5C[C@H](F)C6)nc4c3F)c12` (stereo partly drawn) [Example 862, 5-ethyl-6-fluoro-4-(8-fluoro-2-(((2R,7aS)-2-fluorohexahydro-1H-pyrrolizin-7a-yl)methoxy)-4-((1R,5S,8S)-8-methyl-3-azabicyclo[3.2.1]octan-3-yl)pyrido[4,3-d]pyrimidin-7-yl)naphthalen-2-ol], the IC50 worked out at 7210 nM in experiment [1]; 196 nM in experiment [2]; 311 nM at KRas^G12D; 6210 nM in experiment [3]; 60 nM on KRas^G12V; 95 nM on KRas^G12R. Besides, the IC50 in [4] was 3700 nM; in [5] it was 1110 nM; in [6] it was > 10000 nM; in experiment [7], 1680 nM; in experiment [8], 2870 nM.

Regarding `CCc1c(F)ccc2cc(O)cc(-c3ncc4c(N5CC6CCC(C5)C6CC(=O)NC)nc(OC[C@@]56CCCN5C[C@H](F)C6)nc4c3F)c12` (stereo partly drawn) [Example 863, 2-((1R,5S,8S)-3-(7-(8-ethyl-7-fluoro-3-hydroxynaphthalen-1-yl)-8-fluoro-2-(((2R,7aS)-2-fluorotetrahydro-1H-pyrrolizin-7a(5H)-yl)methoxy)pyrido[4,3-d]pyrimidin-4-yl)-3-azabicyclo[3.2.1]octan-8-yl)-N-methylacetamide], the IC50 in experiment [1] is > 10000 nM; in experiment [2], 208 nM; on KRas^G12D, 145 nM; in [3], > 10000 nM; on KRas^G12V, 32 nM; on KRas^G12R, 34 nM. In addition, the half-maximal inhibitory concentration (IC50) in experiment [4] was 4000 nM; in [5], 1990 nM; in experiment [6], > 10000 nM; in experiment [7], 1360 nM; in experiment [8], 3890 nM.

For `Oc1cc(-c2ncc3c(N4CCOCC5(CCO5)C4)nc(OC[C@@]45CCCN4C[C@H](F)C5)nc3c2F)c2c(Cl)c(F)ccc2c1` (stereo partly drawn) [Example 868, 5-chloro-6-fluoro-4-(8-fluoro-2-(((2R,7aS)-2-fluorotetrahydro-1H-pyrrolizin-7a(5H)-yl)methoxy)-4-(1,6-dioxa-9-azaspiro[3.6]decan-9-yl)pyrido[4,3-d]pyrimidin-7-yl)naphthalen-2-ol], the 50% inhibitory concentration (IC50) is 61 nM in experiment [1]; 21 nM in experiment [2]; < 2 nM at KRas^G12D; 17 nM in [3]; < 2 nM at KRas^G12V; < 2 nM at KRas^G12R. The IC50 stood at 24 nM in experiment [4]; 22 nM in experiment [5]; 3420 nM in experiment [6]; 12 nM in experiment [7]; 53 nM in experiment [8].

Regarding `CCc1c(F)ccc2cc(O)cc(-c3ncc4c(N5CC6CCC(C5)C6(F)F)nc(OC[C@@]56CCCN5C[C@H](F)C6)nc4c3F)c12` [Example 869, 4-(4-(8,8-difluoro-3-azabicyclo[3.2.1]octan-3-yl)-8-fluoro-2-(((2R,7aS)-2-fluorotetrahydro-1H-pyrrolizin-7a(5H)-yl)methoxy)pyrido[4,3-d]pyrimidin-7-yl)-5-ethyl-6-fluoronaphthalen-2-ol], the IC50 in experiment [1] came to 2760 nM; in experiment [2] it was 290 nM; on KRas^G12D, 210 nM; in [3], 3600 nM; at KRas^G12V, 116 nM; on KRas^G12R it was 26 nM. The IC50 is 4520 nM in experiment [4]; 271 nM in experiment [5]; > 10000 nM in [6]; 922 nM in experiment [7]; 1200 nM in experiment [8].

For `CCc1c(F)ccc2cc(O)cc(-c3ncc4c(N5CCC[C@@](C)(O)C5)nc(OC[C@@]56CCCN5[C@H](COCC5CC5)CC6)nc4c3F)c12` [Example 870, (R)-1-(2-(((3S,7aS)-3-((cyclopropylmethoxy)methyl)tetrahydro-1H-pyrrolizin-7a(5H)-yl)methoxy)-7-(8-ethyl-7-fluoro-3-hydroxynaphthalen-1-yl)-8-fluoropyrido[4,3-d]pyrimidin-4-yl)-3-methylpiperidin-3-ol], the IC50 in experiment [1] was 66 nM; in experiment [2] it was 18 nM; on KRas^G12D, < 2 nM; in experiment [3], 51 nM; on KRas^G12V it was < 2 nM; on KRas^G12R, < 2 nM. The IC50 in experiment [4] turned out to be 98 nM; in experiment [5], 25 nM; in experiment [6], 1300 nM; in experiment [7] it was 10 nM; in experiment [8], 49 nM.

On to `CCCCN(CCCC)C(=O)OC[C@@H]1CC[C@@]2(COc3nc(N4CCC[C@@](C)(O)C4)c4cnc(-c5cc(O)cc6ccc(F)c(CC)c56)c(F)c4n3)CCCN12` [Example 873, ((3S,7aR)-7a-(((7-(8-ethyl-7-fluoro-3-hydroxynaphthalen-1-yl)-8-fluoro-4-((R)-3-hydroxy-3-methylpiperidin-1-yl)pyrido[4,3-d]pyrimidin-2-yl)oxy)methyl)hexahydro-1H-pyrrolizin-3-yl)methyl dibutylcarbamate], for which the IC50 was found to be 135 nM in [1]; 198 nM in [2]; 7 nM at KRas^G12D; 93 nM in [3]; 7 nM at KRas^G12V; 12 nM on KRas^G12R. Moreover, the IC50 is 408 nM in experiment [4]; 194 nM in experiment [5]; > 10000 nM in experiment [6]; 149 nM in [7]; 325 nM in experiment [8].

`CCCCN(C)C(=O)OC[C@@H]1CC[C@@]2(COc3nc(N4CCC[C@@](C)(O)C4)c4cnc(-c5cc(O)cc6ccc(F)c(CC)c56)c(F)c4n3)CCCN12` [Example 874, ((3S,7aR)-7a-(((7-(8-ethyl-7-fluoro-3-hydroxynaphthalen-1-yl)-8-fluoro-4-((R)-3-hydroxy-3-methylpiperidin-1-yl)pyrido[4,3-d]pyrimidin-2-yl)oxy)methyl)hexahydro-1H-pyrrolizin-3-yl)methyl butyl(methyl)carbamate]: the IC50 in experiment [1] is 22 nM; in experiment [2] it was 22 nM; on KRas^G12D, < 2 nM; in [3], 12 nM; at KRas^G12V, 2 nM; on KRas^G12R, 3 nM. The IC50 in experiment [4] worked out at 81 nM; in experiment [5], 21 nM; in experiment [6] it was 2070 nM; in experiment [7], 16 nM; in [8], 48 nM.

These data come from patent publication US20260015350A1, “AZAQUINAZOLINE PAN-KRAS INHIBITORS” (Mirati Therapeutics, Inc., priority 2022, published 2026).
